The target of experiment [1] is T1, CAT (catalase from bovine liver) (Bos taurus, UniProt P00432).
T1 construct: native commercial enzyme from bovine liver (Beijing Solarbio); heme homotetramer, 506 residues per subunit
T1 sequence (P00432 2-527): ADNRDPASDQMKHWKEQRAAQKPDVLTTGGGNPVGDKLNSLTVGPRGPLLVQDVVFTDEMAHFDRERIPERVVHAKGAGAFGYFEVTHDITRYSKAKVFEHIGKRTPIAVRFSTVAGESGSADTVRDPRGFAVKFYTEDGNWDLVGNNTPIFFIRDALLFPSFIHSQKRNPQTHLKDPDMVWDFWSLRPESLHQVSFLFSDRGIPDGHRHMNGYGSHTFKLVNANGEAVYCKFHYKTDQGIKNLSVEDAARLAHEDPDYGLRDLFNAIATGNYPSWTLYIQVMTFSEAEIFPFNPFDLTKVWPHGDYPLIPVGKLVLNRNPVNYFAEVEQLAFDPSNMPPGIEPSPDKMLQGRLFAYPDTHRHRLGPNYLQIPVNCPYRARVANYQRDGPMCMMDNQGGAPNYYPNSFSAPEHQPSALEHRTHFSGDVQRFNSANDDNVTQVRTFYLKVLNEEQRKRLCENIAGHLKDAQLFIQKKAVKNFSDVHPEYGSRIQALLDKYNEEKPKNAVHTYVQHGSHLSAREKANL
Description: isothermal titration calorimetry, one-site model. The format is binding. Particulars: read-out: K (M^-1). The source says: isothermal titration calorimetry, one-site model on CAT (catalase from bovine liver)
In general terms: Isothermal titration calorimetry measures the heat released or taken up as one component is titrated into another.

Experiment [2] has as its target T1, CAT (catalase from bovine liver). Description: H2O2 decomposition, absorbance at […] nm. The class given is biochemical.

As to `O=C1c2ccccc2C(=O)c2c1cc(S(=O)(=O)O)c(O)c2O` [Alizarin red S], the Kd in experiment [1] was found to be 39.2 µM. In experiment [2], this molecule had an inhibition at 5 µM of 23.8%.

A word on the inhibition: it is the change of the read-out against control, counted positive when it falls. Low readings indicate little suppression, high ones strong suppression.

Values taken from article PMC9073274, “The toxic effects of alizarin red S on catalase at the molecular level” (RSC Advances, 2019).
